In PubChem BioAssay (NCI):
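Method: 48-hour compound exposure of cells in 96-well plates, five concentrations, linear interpolation of endpoints. TGI denotes the concentration required for complete inhibition of growth.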

Key:
Experiment in all cases: growth of human tumour cells (NCI), 48 h
[1] = system: HCC-2998 colon
[2] = system: HOP-62 NSCLC
[3] = system: LOX IMVI melanoma
[4] = system: MOLT-4 leukemia
[5] = system: NCI-H226 lung
[6] = system: NCI-H23 lung
[7] = system: NCI-H460 lung
[8] = system: OVCAR-3 ovarian
[9] = system: OVCAR-5 ovarian
[10] = system: RXF 393 renal
[11] = system: SF-539 CNS
[12] = system: SK-MEL-28 melanoma
[13] = system: SK-OV-3 ovarian
[14] = system: SNB-19 CNS
[15] = system: U251 CNS
[16] = system: UACC-62 melanoma
[17] = system: UO-31 renal
[18] = system: NCI/ADR-RES ovarian
[19] = system: SW-620 colon
[20] = system: A549 NSCLC

Structure (SMILES)	TGI [1] [µM]	TGI [2] [µM]	TGI [3] [µM]	TGI [4] [µM]	TGI [5] [µM]	TGI [6] [µM]	TGI [7] [µM]	TGI [8] [µM]	TGI [9] [µM]	TGI [10] [µM]	TGI [11] [µM]	TGI [12] [µM]	TGI [13] [µM]	TGI [14] [µM]	TGI [15] [µM]	TGI [16] [µM]	TGI [17] [µM]	TGI [18] [µM]	TGI [19] [µM]	TGI [20] [µM]
CCCOP(=O)(OCCC)OC(C(F)(F)F)C(F)(F)F	> 100	> 100	> 100	> 100	> 100	> 100	> 100	> 100	> 100	> 100	> 100	> 100	> 100	> 100	> 100	> 100	> 100			
COc1cc2cc(C(=O)N3CC(CCl)c4ccc(N(C)C)cc43)[nH]c2c(OC)c1OC (stereo not drawn)	0.106	0.265	0.289	0.443	0.428	0.118	7.01	0.363	0.259	0.0761	0.2	0.121	1.54	8.21	4.05	0.524	0.143	0.272	0.773	
CN1Cc2cc(O)c(O)cc2C(O)C1 (stereo not drawn)	> 100	> 100	> 100	> 100	> 100	> 100	> 100	> 100	> 100	> 100	> 100	> 100	> 100	> 100	> 100	> 100	> 100	> 100	> 100	> 100
CN(O)C(=O)CCCC(=O)NCC(C)(C)CNC(=O)CCCC(=O)N(C)O	> 100	> 100	> 100	> 100	> 100	> 100	> 100	> 100	> 100	> 100	> 100		> 100	> 100	> 100	> 100	> 100	> 100	> 100	> 100
CCOc1ccc(C(C)c2cc3c(cc2OC)OCO3)cc1 (stereo not drawn)	12.1	23.1	> 100	15	0.752	> 100	> 100	27.7	> 100	0.539	0.631		> 100	> 100	> 100	> 100	> 100		> 100	90.8
COC1=CC(=O)C=C(OC)C1=O	56.2	54.3	13.1	3.59	30.8	22.7	57.1	32.2	52.2	20.7	37.8	46.5	40.3	27	64.5	11.6	54.1	10.1	13.5	95.7
